Where two headings read alike, the source gives them in different places.
Molecular target: Full-length inactive AKT1 (Homo sapiens, UniProt P31749)
Experiment: Inactive Akt Alpha Screen Assay
Format: biochemical
Procedure, shortened: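 AlphaScreen read-out (excitation 640 nm, emission 570 nm) after 90 min incubation at room temperature in the dark. Signal comes from crosstide phosphorylation by AKT1, which was activated by added PDK1, MAPKAPK2, ATP and lipid vesicles, captured via phospho-AKT substrate antibody and streptavidin beads.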

[1] = AlphaScreen assay (values not marked with *), read-out: Akt1 IC50, (AlphaScreen) (μM) (or if marked with “*” HTRF assay)
[2] = values not marked with "*", read-out: Akt1 IC50, (AlphaScreen)
[3] = values not marked with "*": AlphaScreen assay, read-out: Akt1 IC50, (AlphaScreen)

Sequence of Full-length inactive AKT1 (P31749 whole entry): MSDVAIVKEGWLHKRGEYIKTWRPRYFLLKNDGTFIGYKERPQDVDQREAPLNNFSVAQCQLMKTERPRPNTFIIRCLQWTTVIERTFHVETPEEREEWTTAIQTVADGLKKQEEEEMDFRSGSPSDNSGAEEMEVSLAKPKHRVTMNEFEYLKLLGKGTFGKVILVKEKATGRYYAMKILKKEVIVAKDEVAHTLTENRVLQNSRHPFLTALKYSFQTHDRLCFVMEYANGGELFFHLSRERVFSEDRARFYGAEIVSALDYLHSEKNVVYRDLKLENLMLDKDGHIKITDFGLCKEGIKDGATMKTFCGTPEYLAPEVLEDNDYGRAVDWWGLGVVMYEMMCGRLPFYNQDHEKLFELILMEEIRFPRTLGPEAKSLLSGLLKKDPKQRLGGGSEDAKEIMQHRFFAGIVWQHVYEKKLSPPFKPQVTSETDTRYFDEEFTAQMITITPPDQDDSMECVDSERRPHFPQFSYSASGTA

Row | IC50 [2] | SMILES | also measured
1 |  | Nc1ncccc1-c1nc2ccc(-c3cccc4c3CC(=O)N4)nc2n1-c1ccc(C2(N)CCC2)cc1 [Example 454, 4-{3-[4-(1-aminocyclobutyl)phenyl]-2-(2-aminopyridin-3-yl)-3H-imidazo[4,5-b]pyridin-5-yl}-1,3-dihydro-2H-indol-2-one] | IC50 [1]: 0.0094 µM
2 | 0.6 µM | COc1ccc(Nc2ccc3nc(-c4cccnc4N)n(-c4ccc(CNC(=O)c5ccccc5)cc4)c3n2)cc1 [Example 175] | 
3 |  | Nc1ncccc1-c1nc2ccc(-c3cc(O)cc(F)c3)nc2n1-c1ccc(C2(N)CCC2)cc1 [Example 435, 3-{3-[4-(1-aminocyclobutyl)phenyl]-2-(2-aminopyridin-3-yl)-3H-imidazo[4,5-b]pyridin-5-yl}-5-fluorophenol] | IC50 [1]: 0.01 µM
4 |  | Cc1ccccc1C(=O)NCc1ccc(-n2c(-c3cccnc3N)nc3cccnc32)cc1 [Example 70] | IC50 [3]: 0.189 µM
5 | 0.15 µM | Cc1ccc2nc(-c3cccnc3N)n(-c3ccc(CNC(=O)c4cccn4C)cc3)c2n1 [Example 262, N-(4-(2-(2-aminopyridin-3-yl)-5-methyl-3H-imidazo[4,5-b]pyridin-3-yl)benzyl)-1-methyl-1H-pyrrole-2-carboxamide] | 
6 |  | CC(C)(C)C(=O)NCc1ccc(-n2c(-c3cccnc3N)nc3cccnc32)cc1 [Example 52, N-{4-[2-(2-aminopyridin-3-yl)-3H-imidazo[4,5-b]pyridin-3-yl]benzyl}-2,2-dimethylpropanamide] | IC50 [3]: 2.77 µM
7 | 0.64 µM | Cc1cnc2c(c1)nc(-c1cccnc1N)n2-c1ccc(CNC(=O)c2cncnc2)cc1 [Example 271, N-(4-(2-(2-aminopyridin-3-yl)-6-methyl-3H-imidazo[4,5-b]pyridin-3-yl)benzyl)pyrimidine-5-carboxamide] | 
8 | 0.0037 µM | Nc1ncccc1-c1nc2ccc(-c3ccc(CO)cc3)nc2n1-c1ccc(C2(N)CCC2)cc1 [Example 383, (4-(3-(4-(1-aminocyclobutyl)phenyl)-2-(2-aminopyridin-3-yl)-3H-imidazo[4,5-b]pyridin-5-yl)phenyl)methanol] | 
9 | 0.076 µM | Cc1cnc2c(c1)nc(-c1cccnc1N)n2-c1ccc(CC(=O)Nc2ccccc2)cc1 [Example 195, 2-(4-(2-(2-aminopyridin-3-yl)-6-methyl-3H-imidazo[4,5-b]pyridin-3-yl)phenyl)-N-phenylacetamide] | 
10 | 0.2 µM | CC(C)(C)OC(=O)NCc1ccc(-n2c(-c3cccnc3N)nc3cc(-c4cccnc4)cnc32)cc1 [Example 250, tert-butyl 4-(2-(2-aminopyridin-3-yl)-6-(pyridin-3-yl)-3H-imidazo[4,5-b]pyridin-3-yl)benzylcarbamate] | 
11 | 0.0013 µM | Nc1ncccc1-c1nc2ccc(-c3cccc(CO)c3)nc2n1-c1ccc(C2(N)CCC2)cc1 [Example 374, (3-(3-(4-(1-aminocyclobutyl)phenyl)-2-(2-aminopyridin-3-yl)-3H-imidazo[4,5-b]pyridin-5-yl)phenyl)methanol] | 
12 | 0.064 µM | CCOC(=O)Cc1ccc(-n2c(-c3cccnc3N)nc3ccc(-c4cccnc4)nc32)cc1 [Example 242, ethyl 2-(4-(2-(2-aminopyridin-3-yl)-5-(pyridin-3-yl)-3H-imidazo[4,5-b]pyridin-3-yl)phenyl)acetate] | 
13 | 0.18 µM | CC(C)(C)OC(=O)NCc1ccc(-n2c(-c3cccnc3N)nc3ccc(-c4ccncc4)nc32)cc1 [Example 208, tert-butyl 4-(2-(2-aminopyridin-3-yl)-5-(pyridin-4-yl)-3H-imidazo[4,5-b]pyridin-3-yl)benzylcarbamate] | 
14 | 0.11 µM | Cc1cnc2c(c1)nc(-c1cccnc1N)n2-c1ccc(CNC(=O)c2ccc(Cl)cc2Cl)cc1 [Example 275, N-(4-(2-(2-aminopyridin-3-yl)-6-methyl-3H-imidazo[4,5-b]pyridin-3-yl)benzyl)-2,4-dichlorobenzamide] | 
15 | 0.53 µM | CC(=O)Nc1ccc(-c2ccc3nc(-c4cccnc4N)n(-c4ccc(CNC(=O)OC(C)(C)C)cc4)c3n2)cc1 [Example 259, tert-butyl 4-(5-(4-acetamidophenyl)-2-(2-aminopyridin-3-yl)-3H-imidazo[4,5-b]pyridin-3-yl)benzylcarbamate] | 
16 | 0.01 µM | Nc1ncccc1-c1nc2ccc(-c3nccs3)nc2n1-c1ccc(C2(N)CCC2)cc1 [Example 425, 3-{3-[4-(1-aminocyclobutyl)phenyl]-5-(1,3-thiazol-2-yl)-3H-imidazo[4,5-b]pyridin-2-yl}pyridin-2-amine] | 
17 | 0.005 µM | CS(=O)(=O)c1cccc(-c2ccc3nc(-c4cccnc4N)n(-c4ccc(C5(N)CCC5)cc4)c3n2)c1 [Example 391, 3-(3-(4-(1-aminocyclobutyl)phenyl)-5-(3-(methylsulfonyl)phenyl)-3H-imidazo[4,5-b]pyridin-2-yl)pyridin-2-amine] | 

Row | IC50 [2] | SMILES | also measured
18 | 0.36 µM | Nc1ncccc1-c1nc2cc(C(F)(F)F)cnc2n1-c1ccc(CNC(=O)c2cccc(F)c2)cc1 [Example 188, N-{4-[2-(2-aminopyridin-3-yl)-6-(trifluoromethyl)-3H-imidazo[4,5-b]pyridin-3-yl]benzyl}-3-fluorobenzamide] | 
19 | 0.14 µM | CS(=O)(=O)Nc1ncccc1-c1nc2ccc(-c3ccccc3)nc2n1-c1ccc(C2(NS(C)(=O)=O)CCC2)cc1 [Example 366, N-(3-(3-(4-(1-(methylsulfonamido)cyclobutyl)phenyl)-5-phenyl-3H-imidazo[4,5-b]pyridin-2-yl)pyridin-2-yl)methanesulfonamide] | 
20 |  | Nc1ncccc1-c1nc2cc(Br)cnc2n1-c1ccc(CNS(=O)(=O)C2CCCCC2)cc1 [Example 151, N-{4-[2-(2-aminopyridin-3-yl)-6-bromo-3H-imidazo[4,5-b]pyridin-3-yl]benzyl}cyclohexanesulfonamide] | IC50 [3]: 0.34 µM
21 | 0.057 µM | Nc1ncccc1-c1nc2cc(-c3cccnc3)cnc2n1-c1ccc(CC(=O)Nc2cccc(F)c2)cc1 [Example 320, 2-(4-(2-(2-aminopyridin-3-yl)-6-(pyridin-3-yl)-3H-imidazo[4,5-b]pyridin-3-yl)phenyl)-N-(3-fluorophenyl)acetamide] | 
22 | 1.1 µM | Nc1ncccc1-c1nc2cccnc2n1-c1ccc(C(=O)Nc2ccc3c(c2)C(=O)OC3)cc1 [Example 182, 4-[2-(2-aminopyridin-3-yl)-3H-imidazo[4,5-b]pyridin-3-yl]-N-(3-oxo-1,3-dihydro-2-benzofuran-5-yl)benzamide] | 
23 | 0.042 µM | CC(=O)Nc1ccc(C(=O)NCc2ccc(-n3c(-c4cccnc4N)nc4cc(-c5cccnc5)cnc43)cc2)cc1 [Example 238, 4-acetamido-N-(4-(2-(2-aminopyridin-3-yl)-6-(pyridin-3-yl)-3H-imidazo[4,5-b]pyridin-3-yl)benzyl)benzamide] | 
24 | 0.002 µM | COc1cc(-c2ccc3nc(-c4cccnc4N)n(-c4ccc(C5(N)CCC5)cc4)c3n2)ccc1N [Example 417, 3-{3-[4-(1-aminocyclobutyl)phenyl]-5-(4-amino-3-methoxyphenyl)-3H-imidazo[4,5-b]pyridin-2-yl}pyridin-2-amine] | 
25 | 0.056 µM | CC(=O)Nc1ccc(-c2ccc3nc(-c4cccnc4N)n(-c4ccc(CNC(=O)c5cccc(F)c5)cc4)c3n2)cc1 [Example 291, N-(4-(5-(4-acetamidophenyl)-2-(2-amino-pyridin-3-yl)-3H-imidazo[4,5-b]pyridin-3-yl)benzyl)-3-fluorobenzamide] | 
26 | 0.093 µM | CNC(=O)C1(c2ccc(-n3c(-c4cccnc4N)nc4ccc(-c5ccccc5)nc43)cc2)CCC1 [Example 378, 1-(4-(2-(2-aminopyridin-3-yl)-5-phenyl-3H-imidazo[4,5-b]pyridin-3-yl)phenyl)-N-methylcyclobutanecarboxamide] | 
27 | 0.025 µM | CC(=O)Nc1ccc(C(=O)NCc2ccc(-n3c(-c4cccnc4N)nc4ccc(C)nc43)cc2)cc1 [Example 249, 4-acetamido-N-(4-(2-(2-aminopyridin-3-yl)-5-methyl-3H-imidazo[4,5-b]pyridin-3-yl)benzyl)benzamide] | 
28 | 0.013 µM | CC(C)C(=O)Nc1cccc(-c2ccc3nc(-c4cccnc4N)n(-c4ccc(C5(N)CCC5)cc4)c3n2)c1 [Example 405, N-(3-{3-[4-(1-aminocyclobutyl)phenyl]-2-(2-aminopyridin-3-yl)-3H-imidazo[4,5-b]pyridin-5-yl}phenyl)-2-methylpropanamide] | 
29 |  | Nc1ncccc1-c1nc2cc(Br)cnc2n1-c1ccc(CNS(=O)(=O)c2ccccc2)cc1 [Example 146, N-{4-[2-(2-aminopyridin-3-yl)-6-bromo-3H-imidazo[4,5-b]pyridin-3-yl]benzyl}benzenesulfonamide] | IC50 [3]: 0.42 µM
30 |  | Nc1ncccc1-c1nc2ccc(-c3cccc(-n4cccn4)c3)nc2n1-c1ccc(C2(N)CCC2)cc1 [Example 456, 3-{3-[4-(1-aminocyclobutyl)phenyl]-5-[3-(1H-pyrazol-1-yl)phenyl]-3H-imidazo[4,5-b]pyridin-2-yl}pyridin-2-amine] | IC50 [1]: 0.0031 µM
31 |  | Nc1ncccc1-c1nc2cccnc2n1-c1ccc(CNC(=O)c2ccc(F)cc2)cc1 [Example 81] | IC50 [3]: 1.37 µM
32 |  | Nc1ncccc1-c1nc2ccc(-c3ccc(F)c(O)c3)nc2n1-c1ccc(C2(N)CCC2)cc1 [Example 436, 5-{3-[4-(1-aminocyclobutyl)phenyl]-2-(2-aminopyridin-3-yl)-3H-imidazo[4,5-b]pyridin-5-yl}-2-fluorophenol] | IC50 [1]: 0.0078 µM
33 | 0.025 µM | NCc1ccc(-c2ccc3nc(-c4cccnc4N)n(-c4ccc(CNC(=O)c5cccc(F)c5)cc4)c3n2)cc1 [Example 314, N-(4-(5-(4-(aminomethyl)phenyl)-2-(2-aminopyridin-3-yl)-3H-imidazo[4,5-b]pyridin-3-yl)benzyl)-3-fluorobenzamide] | 
34 | 0.0046 µM | CNC(=O)c1cccc(-c2ccc3nc(-c4cccnc4N)n(-c4ccc(C5(N)CCC5)cc4)c3n2)c1 [Example 370, 3-(3-(4-(1-aminocyclobutyl)phenyl)-2-(2-aminopyridin-3-yl)-3H-imidazo[4,5-b]pyridin-5-yl)-N-methylbenzamide] | 

— patent US8501770B2 (ArQule, Inc., priority 2009, dated 2013)
